In brackets after ≈: the same amount, converted by molar mass.

Data set [1] is described as follows: Kinetic aqueous solubility. The format is physicochemical. The note with it: phosphate buffer; kinetic solubility in PBS at pH 7.4 and 25 °C. The procedure:
Twenty microliters of a 10 mM compound stock solution in DMSO was added to an Eppendorf tube containing 980 μL of phosphate buffer (10 mM, pH = 7.4). The samples were incubated in an Eppendorf Thermomixer (25 °C, 800 rpm) for 24 h. Afterward, the samples were centrifuged for 5 min at 11,000 rpm and the supernatant was filtered (0.2 μm PTFE membrane) before analysis by HPLC. Each compound was analyzed in duplicate. The solubility was calculated from the peak area relative to the reference samples (200 μM in MeOH/MilliQ H2O, 60/40, v/v).

Data set [2] deals with T1, hFFA2 (Homo sapiens, UniProt O15552).
T1 construct: expressed in transfected cells; host or cells: Flp-In T-Rex 293 cells, doxycycline-induced
T1 sequence (O15552 1-330): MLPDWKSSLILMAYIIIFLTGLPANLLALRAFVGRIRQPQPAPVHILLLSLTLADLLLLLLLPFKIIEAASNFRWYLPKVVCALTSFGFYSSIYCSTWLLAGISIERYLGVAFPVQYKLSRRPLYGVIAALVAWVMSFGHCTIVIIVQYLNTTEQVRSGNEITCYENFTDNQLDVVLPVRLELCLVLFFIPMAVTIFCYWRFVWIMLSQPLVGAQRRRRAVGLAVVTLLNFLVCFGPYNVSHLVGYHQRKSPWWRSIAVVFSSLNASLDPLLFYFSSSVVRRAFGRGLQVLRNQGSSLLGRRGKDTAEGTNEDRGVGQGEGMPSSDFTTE
In words: cAMP assay, antagonist mode, Flp-In T-Rex 293 cells expressing hFFA2-eYFP. The class given is cell-based. The following applies: for cAMP pIC50: hFFA2, antagonist mode, propionate at EC80, mean ± SEM, three or more experiments; for LLEcAMP: pIC50, cAMP – ClogP; for LLEcAMP-logD: pIC50, cAMP – logD7.4; for IC50: read-out: hFFA2 cAMP (pIC50) (converted). The procedure:
(§1) The activity of the compounds on FFA2 was evaluated in two different functional antagonist assays, both using propionate at EC80 as the agonist. The GTPγS assay reflects receptor activation by directly assessing G protein recruitment, whereas the cAMP assay, performed in whole cells, reflects a physiologically relevant downstream second messenger.
The hFFA2-eYFP and hFFA3-eYFP Flp-In T-Rex 293 cell lines were maintained in Dulbecco’s modified Eagle mMedium (DMEM, ThermoFisher #11965092) supplemented with 10% (v/v) fetal bovine serum, 100 U/mL penicillin, 100 μg/mL streptomycin, 5 μg/mL blasticidin S, and 200 μg/mL hygromycin B and incubated at 37 °C and 5% CO2 in a humidified incubator. Cells were passaged at 70–80% confluency.
To determine the compound’s ability to activate or inhibit the Gi-coupled FFA2 or FFA3, intracellular cAMP concentrations were determined using Flp-In T-Rex293 cells induced to express hFFA2-eYFP or hFFA3-eYFP. Experiments were carried out using a homogeneous time-resolved FRET-based detection kit (CisBio, PerkinElmer #62AM9PEC) according to the manufacturer’s protocol. The day before the assay, 10,000 cells/well were plated in DMEM supplemented with penicillin/streptomycin (100 units/mL and […], respectively), 5 μg/mL blasticidin S, and 200 μg/mL hygromycin B in 96-well cell culture microplates (Greiner Bio-One) and induced to express hFFA2-eYFP or hFFA3-YFP with 100 ng/mL doxycycline.
In antagonist mode, the cells were pre-incubated for 20 min with antagonist test compounds in HBSS together with 50 μM IBMX at rt. Then, the cells were further incubated for 25 min at rt in HBSS with the agonist compound, sodium propionate at EC80 (51.4 μM for FFA2, 13.2 μM for FFA3), and 3 μM forskolin. Reactions were stopped, and the output was measured with an Envision plate reader using a time-resolved fluorescence protocol, measuring the light emission at 620 and 665 nm. All analyses were performed in triplicate and analyzed using GraphPad Prism (version 9).

Data set [3] concerns the target T2, human FFA2-eYFP (Homo sapiens, UniProt O15552).
T2 construct: expressed in transfected cells; host or cells: membranes of Flp-In T-Rex 293 cells induced to express the construct
T2 sequence (O15552 1-330): T1 sequence (O15552 1-330)
In words: [35S]GTPγS incorporation assay, membranes of Flp-In T-Rex 293 cells. The format is biochemical. The note with it: for GTPγS pIC50: hFFA2, propionate at EC80, mean ± SEM, three or more experiments; for LLEGTPγS: pIC50, GTPγS – ClogP. The procedure: as §1
Functional activity of the compounds were tested in a [^35S]GTPγS incorporation assay using membranes of Flp-In T-Rex 293 cells induced to express human FFA2-eYFP. […] The reaction was initiated by addition of [^35S]GTPγS (100 nCi per reaction) containing 1 μM GDP and incubated at 30 °C for 60 min. The reaction was terminated by rapid vacuum filtration through GF/C glass fiber filter-bottom 96-well microplates (PerkinElmer Life Sciences, Beaconsfield, UK) using a UniFilter FilterMate Harvester (PerkinElmer). Unbound radioligands were removed from filters by three washes with ice-cold PBS. MicroScint-20 (PerkinElmer) was added to dried filters, and [^35S]GTPγS binding was quantified by liquid scintillation spectroscopy.

The nature of data set [4]: Lipophilicity (logD7.4), octanol/PBS7.4 shake flask. The class given is physicochemical. The following applies: 1-octanol/PBS7.4, pH 7.4; mean of two independent experiments. The procedure: The assay was performed in duplicates essentially as previously described.[58] A glass vial with a screw cap (8 mL) was charged with the test compound (40 μL, 10 mM in DMSO), PBS7.4 (0.01 M, 1980 μL), and 1-octanol (1980 μL). The vial was capped and sealed with a Parafilm and shaken at 700 rpm using an IKA KS 125 basic shaker for 24 h at 25 °C. The Parafilm was removed, and the sample was allowed to equilibrate for 1 h before analysis. One hundred microliters of the octanol phase was withdrawn and diluted 1:10 with MeOH (+0.1% TFA)/MilliQ water (4:1, v/v) and analyzed by HPLC. The interface was removed, and the PBS7.4 phase analyzed directly by HPLC. All analysis was performed in duplicates, and log D7.4 values were calculated from the peak areas (mAU·min) and adjusted for difference in injection volume and concentration-absorption effects from the solvents, using two calibration points per compound per solvent, and dilution of the octanol phase.

A short description of data set [5]: Microsomal stability. The format is in vitro ADME, mouse. The procedure:
The assay was performed in duplicates essentially as described previously,[58] using male CD1 mouse liver microsomes (Thermo Fischer Scientific, 20 mg/mL), NADPH-regenerating agent Solution A and Solution B (Promega), potassium phosphate buffer (100 mM, pH 7.4), and test compounds (1 mM, diluted from 10 mM DMSO stock in the buffer). The samples were analyzed in an Agilent 6130 Mass Spectrometer instrument using electron spray ionization (ESI) coupled to an Agilent 1200 HPLC system (ESI-LCMS) with a C18 reverse phase column (Zorbax Eclipse XBD-C18, 4.6 mm × 50 mm) using a linear gradient of the binary solvent system of 100% mobile phase A (water:MeCN:formic acid, 95:5:0.1 v/v%) to 100% mobile phase B (MeCN:formic acid, 100:0.1 v/v %) in 6 min, with a flow rate of 1 mL/min.
To a pre-warmed solution of potassium phosphate buffer (135.6 μL) in an Eppendorf tube at 37 °C were added Solution A (7.5 μL), Solution B (1.5 μL), microsomes (3.9 μL), and the test compound (1 mM, 1.5 μL, final concentration = 10 μM). The tube was briefly vortexed and incubated at 37 °C in a thermomixer. At 0, 15, 30, 45, and 60 min, 25 μL of each sample was transferred to an ice-cold solution containing an internal standard (5 μM in MeCN, 12.5 μL). The sample was briefly vortexed and centrifuged for 5 min at 10.000g. The supernatant (25 μL) was transferred to HPLC vial and analyzed by ESI-LCMS in single ion mode. The data was analyzed using GraphPad Prism (version 9).

[6] abbreviates: % recovered after 60 min, mouse liver microsomes.

Consider `Cc1cccc(CC(=O)N[C@@H](Cc2ccc(C(F)(F)F)cc2)Cc2nnn[nH]2)c1` [Compound 8, (S)-N-(1-(1H-Tetrazol-5-yl)-3-(4-(trifluoromethyl)phenyl)propan-2-yl)-2-(m-tolyl)acetamide], for which the solubility at 24 h in data set [1] came out at 163 µM (≈ 65.8 µg/mL). For the same molecule, in data set [2], the “cAMP pIC50” value turned out to be 8.30 ± 0.12, the LLEcAMP is on record as 5.24 and the LLEcAMP-logD came to 7.04. Moreover, the IC50 in data set [2] (supplementary CSV) is 5.62 nM. Moreover, in data set [3], the “GTPγS pIC50” value came out at 8.07 ± 0.08 and the LLEGTPγS stood at 5.01. Further, the “increased potency over CATPB (3)” value in data set [3] (vs 3) was “more than 10 fold”. Also, in data set [3] (vs 4), the “increase in potency over TUG-1958 (4)” value was found to be 4 fold. Besides, the logD at 25 h in data set [4] was determined as 1.26 ± 0.07. Also, the microsomal stability in data set [5] (setting [6]) is 89%. The molecule further returned a microsomal stability in data set [5] (supplementary CSV) of 89%.
Take `O=C(Cc1cccc(Cl)c1)N[C@@H](Cc1ccc(C(F)(F)F)cc1)Cc1nnn[nH]1` [Compound 16e, (S)-N-(1-(1H-Tetrazol-5-yl)-3-(4-(trifluoromethyl)phenyl)propan-2-yl)-2-(3-chlorophenyl)acetamide]: the concentration in solution in data set [1] (solubility at 24 h) was 138 µM (≈ 58.5 µg/mL). Moreover, in data set [2], the “cAMP pIC50” value amounted to 8.15 ± 0.05, the LLEcAMP was found to be 4.87 and the LLEcAMP-logD amounted to 6.35. Besides, in data set [2] (supplementary CSV), the IC50 is 6.61 nM. Besides, in data set [3], the “GTPγS pIC50” value is reported as 8.53 ± 0.19 and the LLEGTPγS is listed as 5.25. This molecule also showed a logD at 25 h in data set [4] of 1.8 ± 0.09. Also, in data set [5] (setting [6]), the microsomal stability came out at 92%. In data set [5] (supplementary CSV), the microsomal stability is 92%.
As for `O=C(Cc1cccc(Br)c1)N[C@@H](Cc1ccc(C(F)(F)F)cc1)Cc1nnn[nH]1` [Compound 16g, (S)-N-(1-(1H-Tetrazol-5-yl)-3-(4-(trifluoromethyl)phenyl)propan-2-yl)-2-(3-bromophenyl)acetamide], the concentration in solution in data set [1] (solubility at 24 h) came to 121 µM (≈ 56.7 µg/mL). Moreover, in data set [2], the “cAMP pIC50” value came out at 8.21 ± 0.09 and the LLEcAMP is listed as 4.78. For the same molecule, the “hFFA2 cAMP (pIC50)” value in data set [2] (supplementary CSV) turned out to be 8.19 ± 0.19. In data set [3], the “GTPγS pIC50” value is listed as 8.30 ± 0.21 and the LLEGTPγS is recorded as 4.87.
In data set [1], `O=C(Cc1cccc(I)c1)N[C@@H](Cc1ccc(C(F)(F)F)cc1)Cc1nnn[nH]1` [Compound 16h, (S)-N-(1-(1H-Tetrazol-5-yl)-3-(4-(trifluoromethyl)phenyl)propan-2-yl)-2-(3-iodophenyl)acetamide] returned a solubility at 24 h of 81 µM (≈ 41.7 µg/mL). In data set [2], the “cAMP pIC50” value stood at 8.26 ± 0.08 and the LLEcAMP was determined as 4.57. In data set [2] (supplementary CSV), the IC50 is 6.03 nM. Also, in data set [3], the “GTPγS pIC50” value is on record as 8.38 ± 0.05 and the LLEGTPγS is reported as 4.69.
For `O=C(Cc1cccc(Cl)c1)N[C@H](CCc1nnn[nH]1)Cc1ccc(C(F)(F)F)cc1` [Compound 21, (R)-N-(4-(1H-Tetrazol-5-yl)-1-(4-(trifluoromethyl)phenyl)butan-2-yl)-2-(3-chlorophenyl)-acetamide], in data set [2], the “cAMP pIC50” value is reported as 7.55 ± 0.14 and the LLEcAMP is reported as 3.75. Further, the IC50 in data set [2] (supplementary CSV) was 30.9 nM. Also, the “potency decrease on elongated tetrazole linker” value in data set [2] (vs 16e, cAMP assay) is reported as 5–6 fold. Further, in data set [3], the “GTPγS pIC50” value was 7.72 ± 0.12 and the LLEGTPγS was found to be 3.92. Further, the “potency decrease on elongated tetrazole linker” value in data set [3] (vs 16e, GTPγS assay) is reported as 5–6 fold.

These data come from article PMC10547238, “Discovery of Potent Tetrazole Free Fatty Acid Receptor 2 Antagonists” (Journal of Medicinal Chemistry, 2023).
